In publication PMC12677652, “Procyanidin B3 and Its Derivatives Alleviate Neuronal Injury by Targeting G3BP1 for Ischemic Stroke Therapy” (Advanced Science, 2025):

How the values were obtained:
[1] = Pharmacokinetic study in mice, i.p. injection; format: in vivo; conditions: C57BL/6, mouse, ip, 48 mg kg^−1 i.p., plasma, mean ± S.D., n = 3
Description: Pharmacokinetic analyses were performed using a LC‐40D XS HPLC system (Shimadzu, Japan) coupled with a Sciex Triple Quad 5500 mass spectrometer (AB SCIEX, USA). Tested compounds PB3 and 6c were administered by i.p. injection (48 mg kg^−1, formulation solvent: normal saline). Blood samples were drawn from the retro‐orbital vein at 0.083, 0.25, 0.5, 1, 2, 4, 8, and 24 h post‐injection with EDTA dipotassium salt as an anticoagulant. Subsequently, the plasma fractions were collected in Eppendorf tubes and centrifuged at 4000 g for 5 min at 4 °C and stored at −80 °C for analysis. Brain tissue was mixed with four‐fold normal saline for homogenization (10 s per time with a 10 s interval for 3–5 times). Then, the mixture was centrifuged at 4000 g for 5 min at 4 °C, and the supernatant was stored at −80 °C for analysis. For sample preparation, the desired serial concentrations of working solutions were achieved by diluting a stock solution of analyte with 50% methanol in water solution. 2 µL of working solutions were added to 10 µL of the blank C57BL/6 mouse plasma/brain homogenate to achieve calibration standards of 10–10 000 ng mL^−1 (10, 20, 100, 200, 1000, 2000, 4000, 10 000 ng mL^−1) in a total volume of 12 µL. Three quality control samples at 20 ng mL^−1, 1600 ng mL^−1, and 8000 ng mL^−1 for plasma were prepared independently of those used for the calibration curves. These QC samples were prepared on the day of analysis in the same way as calibration standards.

[2] = tested on: Primary rat cortical neurons; assay: Cytotoxicity (50% cytotoxic concentration) by CCK-8 assay; format: cell-based; conditions: 24 h exposure
Description: Additionally, we investigated the effects of PB3, 6c, and EDA on apoptosis at a concentration of 50 µM. […] Therefore, the improvement in target accessibility could be one of the main reasons for the enhanced activity of 6c. The binding mode of 6c and the NTF2L domain of G3BP1 was analyzed by molecular docking (Figure S10B, Supporting Information). […] Cytotoxicities of 1 and 6c were determined by the detection of 50% cytotoxic concentration using the CCK‐8 assay. Primary rat cortical neurons ^[ [10] ^] were exposed to 200 µM gradient concentrations of compounds for 24 h.

OGD/R‐treated HT22 cells = assay: Neuroprotective effect on OGD/R-treated HT22 cells, cell viability by CCK-8; format: cell-based; conditions: 6 h OGD; for viability at 2 µM / viability at 20 µM: Mus musculus, HT-22, 24 h reoxygenation with compound, relative to control cells, mean ± S.D., n = 3
Description: (§1) HT22 cells were washed with phosphate buffered saline (PBS), then DMEM sugar‐free medium (Gibco, USA) was added and placed in the anaerobic incubator of 5% CO2, 1% O2, and 37 °C for 6 h. PB3 or other compounds were previously dissolved in DMEM/F‐12 with 10% FBS and 1% penicillin/streptomycin. After undergoing OGD for 6 h, the medium was replaced by DMEM/F‐12 with 10% FBS and 1% penicillin/streptomycin containing PB3 or other compounds and kept in a humidified 5% CO2, 37 °C incubator for 24 h.
The CCK‐8 assay kit (Yeasen, China) was used to assess cell viability. All operations were performed following instructions. HT22 cells were seeded into the 96‐well plate (3000 cells per well). The cells were cultured at 37 °C with 5% CO2 in a humidified incubator overnight. After 6 h of OGD, the medium was replaced by DMEM/F‐12 with 10% FBS and 1% penicillin/streptomycin containing PB3 or other compounds and kept in a humidified 5% CO2, 37 °C incubator for 24 h. Then, the cells were washed with PBS, the medium was replaced with DMEM/F‐12 with 10% FBS and 1% penicillin/streptomycin containing 10% CCK‐8 solution, and incubated for 1 h at 37 °C. The absorbance was assessed by a Synergy H1 multi‐mode microplate reader (BioTek, USA) at 450 nm.

[3] = tested on: HT22 cells under OGD/R injury; assay: Apoptosis level of HT22 cells under OGD/R (TUNEL staining and immunoblotting); format: cell-based
Description: as §1
Apoptosis level was evaluated by TUNEL staining and flow cytometry. For TUNEL staining, HT22 cells were treated with 4% paraformaldehyde for 15 min. Then the fixed brain tissue slices and HT22 cells were permeabilized for 5 min using 1% Triton X‐100 (Sigma‐Aldrich, USA) dissolved in PBS. TUNEL staining was executed by following the instructions, using a one‐step TUNEL apoptosis assay kit (Meilunbio, China). Red fluorescence was utilized to identify apoptotic cells, while 4′, 6‐diamidino‐2‐phenylindole (DAPI) was used to counterstain the nuclei. The fluorescence microscope (Carl Zeiss, Germany) was used to obtain images. For flow cytometry, apoptotic cells were determined with the Annexin V‐Alexa Fluor 488/PI apoptosis detection kit (Yeasen, China) by following the instructions. EDTA‐free trypsin (Gibco, USA) was added to HT22 cells (2.5 × 10^5 cells). The cells were collected and washed with pre‐cooling PBS 2 times, then suspended in 250 µL 1× binding buffer. 100 µL cell suspension was dyed with 5 µL Annexin V‐Alexa Fluor 488 and 10 µL PI and plunged into darkness at room temperature for 15 min. Then the cell suspension was mixed with 400 µL of 1× binding buffer. Cell apoptosis was immediately determined by Cytek Aurora (Cytek Biosciences, USA).
Cells and tissues were homogenized in RIPA buffer (Beyotime, China) containing protease inhibitors (Biovision, USA) on ice for 30 min. After centrifugation (13000 r min^−1, 4 °C) for 10 min, the resulting supernatant was collected. The protein concentrations were determined by a BCA protein assay kit (Thermo Scientific, USA). After separating a 10% sodium dodecyl sulfate (SDS)‐polyacrylamide gel, protein on the gel was then transferred onto nitrocellulose membranes (Merck, USA), which were blocked with 5% bovine serum albumin for 1 h to prevent non‐specific binding. Then, the anti‐caspase 3 antibody (catalog no. 9662, Cell Signaling Technology, USA), anti‐Bcl‐2 antibody (catalog no. GTX100064, GeneTex, USA), anti‐G3BP1 antibody (catalog no. 66486‐1‐Ig, Proteintech, China), anti‐β‐tubulin antibody (catalog no. 66240‐1‐Ig, Proteintech, China), and anti‐β‐actin antibody (catalog no. 66009‐1‐Ig, Proteintech, China) were used for treating the membrane overnight at 4 °C. Bound antibodies were detected with the species‐appropriate horseradish peroxidase‐labeled secondary antibody (Jackson ImmunoResearch, USA) using ECL reagents (ShareBio, China). Protein‐specific signals were detected using a Bio‐Rad Imager (Bio‐Rad, USA), and the bands were quantified by densitometric analysis software (ImageJ). β‐tubulin or β‐actin was used as a loading control.

[4] = 50 and 100 µM, compared with the model group
[5] = 50 µM, compared with the model group

Row | AUC(0-inf) [1] | AUC(0-t) [1] | Cmax [1] | MRT inf [1] | half-life [1] | Compound | 50% cytotoxic concentration [2] | viability at 2 µM (OGD/R‐treated HT22 cells) | viability at 20 µM (OGD/R‐treated HT22 cells) | cell viability rate (OGD/R‐treated HT22 cells; PB3 at 20 to 400 µM, 24 h treatment) | expression of Bcl‐2 [3, 4] | expression of cleaved caspase‐3 [3, 4] | rate of TUNEL‐positive cells ([3]; HT22, OGD/R, different concentrations) | expression of Bcl‐2 [3, 5] | expression of cleaved caspase‐3 [3, 5] | rate of TUNEL‐positive cells [3, 5]
1 | 22300 ± 1970 ng·h/mL | 22200 ± 1940 ng·h/mL | 30400 ± 1790 ng/mL | 1.42 ± 0.06 h | 4.43 ± 0.34 h | Oc1cc(O)c2c(c1)O[C@H](c1ccc(O)c(O)c1)[C@@H](O)[C@@H]2c1c(O)cc(O)c2c1O[C@H](c1ccc(O)c(O)c1)[C@@H](O)C2 [Compound 1, procyanidin B3] | over 200 µM | 63.9 ± 3.36% | 70.9 ± 6.71% | significantly improve cell viability rate | significantly increased | significantly decreased | dose‐dependently reduced | – | – | –
2 | 10400 ± 1280 ng·h/mL | 10200 ± 1250 ng·h/mL | 25200 ± 2500 ng/mL | 0.76 ± 0.03 h | 2.01 ± 0.26 h | CC(C)c1c(O)cc(O)c2c1O[C@H](c1ccc(O)c(O)c1)[C@@H](O)[C@@H]2c1c(O)cc(O)c2c1O[C@H](c1ccc(O)c(O)c1)[C@@H](O)C2 [Compound 6c, 8‐Isopropyl‐(+)‐Catechin‐(4α,8)‐(+)‐Catechin] | over 200 µM | 66 ± 1.97% | 83.6 ± 4.34% | – | – | – | – | increase the expression of Bcl‐2 | decrease the expression of cleaved caspase‐3 | reduce the rate of TUNEL‐positive cells
